From US20230159467A1, “NOVEL COMPOUNDS USEFUL IN THE TREATMENT AND/OR PREVENTION OF A DISEASE, DISORDER OR CONDITION ASSOCIATED WITH ANGIOTENSIN II” (Vicore Pharma AB, priority 2020, published 2023)
Where two headings read alike, the source gives them in different places.

Experiments:
CYP2D6 [1] = biological target: T1, CYP2D6 (Homo sapiens, UniProt P10635); assay: CYP450 inhibition assay, pooled human liver microsomes, dextromethorphan substrate; settings: for inhibition at 10 min, 10 µM: both, human, pooled human liver microsomes, pH 7.4, probe dextromethorphan
CYP2C8 = biological target: T2, CYP2C8 (Homo sapiens, UniProt P10632); assay: CYP450 inhibition assay, pooled human liver microsomes, amodiaquine substrate; settings: for inhibition at 10 min, 10 µM: both, human, pooled human liver microsomes, pH 7.4, probe amodiaquine
T2 sequence (P10632 1-490): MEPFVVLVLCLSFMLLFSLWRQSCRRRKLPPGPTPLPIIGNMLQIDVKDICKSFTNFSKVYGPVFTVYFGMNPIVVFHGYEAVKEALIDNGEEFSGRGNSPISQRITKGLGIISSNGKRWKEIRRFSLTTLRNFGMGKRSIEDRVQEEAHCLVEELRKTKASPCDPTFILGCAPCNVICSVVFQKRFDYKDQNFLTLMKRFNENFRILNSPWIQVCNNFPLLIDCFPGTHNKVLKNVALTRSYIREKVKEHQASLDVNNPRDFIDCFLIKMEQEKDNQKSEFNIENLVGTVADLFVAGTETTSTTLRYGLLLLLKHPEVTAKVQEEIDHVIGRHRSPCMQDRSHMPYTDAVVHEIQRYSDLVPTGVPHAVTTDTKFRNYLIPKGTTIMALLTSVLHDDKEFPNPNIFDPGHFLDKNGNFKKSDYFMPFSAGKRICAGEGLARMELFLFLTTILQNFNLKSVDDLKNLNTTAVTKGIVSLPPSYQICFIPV

[2] = Stability in human liver microsomes; assay type: in vitro ADME; settings: half-life
Experimental: (§1) Stability in liver microsomes. Human, mouse and rat liver microsomes were used to assess the metabolic stability for the compounds. Metabolic stability was determined in 0.5 mg/mL human, mouse or rat liver microsomes at a compound concentration of 1 μM in 100 mM potassium phosphate buffer (pH 7.4) in a total incubation volume of 500 μL by Eurofins. The assay matrix was: human liver microsomes: mixed gender and pool of 50, rat liver microsomes: male, Sprague-Dawley, pool of 100 or more and mouse liver microsomes: male,CD-1, pool of 250 or more. Final microsomal protein concentration: 0.1mg/mL. The test concentration was 0.1 μM with 0.01% DMSO, 0.25% acetonitrile and 0.25% methanol by default. […] The reaction was initiated by adding NADPH-generating system and was incubated for 0, 15, 30, 45, and 60 min. The reaction was stopped by transferring the incubation mixture to acetonitrile/methanol. Samples were then mixed and centrifuged. Four reference compounds were tested in each assay. Propranolol and imipramine are relatively stable, whereas verapamil and terfenadine are readily metabolized inhuman liver microsomes. Samples were analyzed by HPLC-MS/MS using selected reaction monitoring. The HPLC system consisted of a binary LC pump with autosampler, a C-18 column, and a gradient. Peak areas corresponding to the test compound were recorded. The compound remaining was calculated by comparing the peak area at each time point to time zero. The half-life was calculated from the slope of the initial linear range of the logarithmic curve of compound remaining (%) vs. time, assuming first order kinetics. In addition, the intrinsic clearance (Clint) was calculated.^19,20

[3] = Stability in rat liver microsomes; assay type: in vitro ADME; settings: half-life
Experimental: as §1

CYP2B6 = biological target: T3, CYP2B6 (Homo sapiens, UniProt P20813); assay: CYP450 inhibition assay, pooled human liver microsomes, bupropion substrate; settings: for inhibition at 10 min, 10 µM: both, human, pooled human liver microsomes, pH 7.4, probe bupropion
T3 sequence (P20813 1-491): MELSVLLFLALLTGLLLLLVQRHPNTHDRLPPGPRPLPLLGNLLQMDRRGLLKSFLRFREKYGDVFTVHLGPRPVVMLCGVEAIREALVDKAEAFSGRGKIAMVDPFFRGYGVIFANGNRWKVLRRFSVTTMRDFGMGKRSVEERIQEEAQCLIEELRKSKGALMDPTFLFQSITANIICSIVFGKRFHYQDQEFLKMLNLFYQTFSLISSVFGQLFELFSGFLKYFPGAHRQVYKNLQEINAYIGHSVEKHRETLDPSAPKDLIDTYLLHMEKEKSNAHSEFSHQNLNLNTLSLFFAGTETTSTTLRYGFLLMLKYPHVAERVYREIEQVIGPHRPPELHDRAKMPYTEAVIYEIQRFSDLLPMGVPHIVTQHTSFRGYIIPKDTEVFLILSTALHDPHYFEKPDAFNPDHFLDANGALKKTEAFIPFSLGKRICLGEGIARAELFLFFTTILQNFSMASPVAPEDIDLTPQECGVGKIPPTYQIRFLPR

CYP3A [4] = assay: CYP450 inhibition assay, pooled human liver microsomes, testosterone substrate; settings: at 10 μM; for inhibition at 10 min, 10 µM: both, human, pooled human liver microsomes, pH 7.4, probe testosterone, CYP 450 Inhibition CYP3A testosterone
Experimental: The compound was tested at a single concentration (10 μM) with 0.1% DMSO. […] The reaction was initiated by adding a NADPH-generating system. The reaction was allowed for 10 min and stopped by transferring the reaction mixture to acetonitrile/methanol. Samples were mixed and centrifuged. Supernatants were used for HPLC-MS/MS of the respective metabolite. The activity of human cytochrome P450 (CYP) enzymes were determined by following the formation of a metabolite of the probe substrate. The following enzymes were evaluated for inhibition using the listed reference substrates and reference inhibitors:
CYP1A—phenacetin (reference inhibitor furafylline), CYP2B6—bupropion (reference inhibitor clopidogre), CYP2C8-amodiaquine (reference inhibitor montelukast), CYP2C9—diclofenac (reference inhibitor sulfaphenazole), CYP2C19—omeprazole (reference inhibitor oxybutynin), CYP2D6—dextromethorphan (reference inhibitor quinidine), CYP3A—midazolam (reference inhibitor ketoconazol) and CYP3A—testosterone (reference inhibitor ketoconazol). The reference inhibitors were tested in each assay at multiple concentrations to obtain an IC50 value. Peak areas corresponding to the metabolite were recorded. The percent of control activity was calculated by comparing the peak area in the presence of the test compound to the control samples containing the same solvent. Subsequently, the percent inhibition was calculated by subtracting the percent control activity from 100. The IC50 value (concentration causing a half-maximal inhibition of the control value) was determined by non-linear regression analysis of the concentration-response curve using the Hill equation.

CYP1A = biological target: T4, CYP1A (Homo sapiens, UniProt P05177); assay: CYP450 inhibition assay, pooled human liver microsomes, phenacetin substrate; settings: for inhibition at 10 min, 10 µM: both, human, pooled human liver microsomes, pH 7.4, probe phenacetin
T4 sequence (P05177 1-516): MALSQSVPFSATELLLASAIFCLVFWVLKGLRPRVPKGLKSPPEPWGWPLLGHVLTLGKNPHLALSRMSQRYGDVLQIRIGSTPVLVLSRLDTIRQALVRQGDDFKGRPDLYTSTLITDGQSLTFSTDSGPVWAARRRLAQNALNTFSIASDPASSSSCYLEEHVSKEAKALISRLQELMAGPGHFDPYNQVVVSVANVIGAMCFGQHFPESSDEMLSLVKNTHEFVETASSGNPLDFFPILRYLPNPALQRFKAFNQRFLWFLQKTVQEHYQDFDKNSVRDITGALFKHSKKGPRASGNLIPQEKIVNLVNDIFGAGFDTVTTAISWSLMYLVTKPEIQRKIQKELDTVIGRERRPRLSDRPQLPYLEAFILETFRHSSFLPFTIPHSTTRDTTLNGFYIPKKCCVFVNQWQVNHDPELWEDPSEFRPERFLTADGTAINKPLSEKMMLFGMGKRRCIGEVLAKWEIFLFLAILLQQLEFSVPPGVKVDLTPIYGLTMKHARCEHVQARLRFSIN

[5] = Stability in mouse liver microsomes; assay type: in vitro ADME; settings: half-life
Experimental: as §1

CYP3A [6] = assay: CYP450 inhibition assay, pooled human liver microsomes, midazolam substrate; settings: for inhibition at 10 min, 10 µM: both, human, pooled human liver microsomes, pH 7.4, probe midazolam
CYP2C9 = CYP2C9 (Homo sapiens, UniProt P11712); assay: CYP450 inhibition assay, pooled human liver microsomes, diclofenac substrate; settings: both, human, pooled human liver microsomes, pH 7.4, probe diclofenac
CYP2C19 [7] = biological target: T5, CYP2C19 (Homo sapiens, UniProt P33261); assay: CYP450 inhibition assay, pooled human liver microsomes, omeprazole substrate; settings: both, human, pooled human liver microsomes, pH 7.4, probe omeprazole
[8] = Kinetic solubility in PBS pH 7.4; assay type: physicochemical; settings: Dulbecco's PBS buffer, aqueous buffer, kinetic from dmso stock; PBS pH 7.4, 24 h room temperature, 2% DMSO
Experimental: Kinetic solubility. Dulbecco's PBS buffer was used (NaCl 137 mM, KCl 2.7 mM, Na2HPO4 8.1 mM, KH2PO4 1.5 mM with pH 7.4). The test compound is prepared at 200 μM in the PBS buffer from a 10 mM DMSO stock solution. The final DMSO concentration is 2%. The buffer samples were mixed thoroughly followed by incubation at room temperature for 24 h. At the end of the incubation, the buffer samples were centrifuged and supernatants were then injected for the HPLC analysis. A calibration standard of the test compound was prepared at 200 μM in methanol/water (3/2, v/v) from a 10 mM DMSO stock solution on the day of HPLC analysis. The analysis was conducted by HPLC-UV/VIS with photodiode array detection, with monitoring at 205, 230, 260, and 300 nm wavelengths. The HPLC system consisted of a C18 column using a gradient of A and B (A=12 mM ammonium formate, 6 mM formic acid in water, pH 4.0, B=6 mM ammonium formate, 3 mM formic acid acetonitrile/water (9/1, v/v)). Reference compounds used were metoprolol, rifampicin, ketoconazole, phenytoin, haloperidol, simvastatin, diethylstilbestrol, and tamoxifen, ranking from fully soluble (200 μM) to poorly soluble (<1μM). […] The range of the assay was approximately 0.5 μM to 200 μM. The chromatographic purity (%) was determined as the peak area of the principal peak relative to the total integrated peak areas in the HPLC chromatogram of the calibration standard.

CYP2D6 [9] = biological target: T1, CYP2D6; settings: at 10 μM; from Bioorg. Med. Chem. 2010, 18 (12), 4570-4590; cited from earlier work
CYP3A [10] = settings: at 10 μM; midazolam substrate; from Bioorg. Med. Chem. 2010, 18 (12), 4570-4590; cited from earlier work
CYP2C19 [11] = biological target: T5, CYP2C19; settings: at 10 μM; from Bioorg. Med. Chem. 2010, 18 (12), 4570-4590; cited from earlier work

T5 sequence (P33261 whole entry): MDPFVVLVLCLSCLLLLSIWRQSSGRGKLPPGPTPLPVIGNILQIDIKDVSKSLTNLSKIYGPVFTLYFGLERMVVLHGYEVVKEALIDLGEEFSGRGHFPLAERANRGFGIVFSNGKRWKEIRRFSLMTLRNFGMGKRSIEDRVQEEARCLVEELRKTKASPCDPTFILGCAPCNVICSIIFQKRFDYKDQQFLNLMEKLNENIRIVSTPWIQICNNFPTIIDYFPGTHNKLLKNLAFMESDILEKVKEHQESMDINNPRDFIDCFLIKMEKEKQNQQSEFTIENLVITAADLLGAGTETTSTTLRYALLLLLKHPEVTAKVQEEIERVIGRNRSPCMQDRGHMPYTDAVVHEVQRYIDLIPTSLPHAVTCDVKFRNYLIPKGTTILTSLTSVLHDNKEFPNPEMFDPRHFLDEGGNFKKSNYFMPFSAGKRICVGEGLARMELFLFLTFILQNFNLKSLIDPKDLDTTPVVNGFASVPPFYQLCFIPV
Chain of CYP2C9 (P11712 whole entry): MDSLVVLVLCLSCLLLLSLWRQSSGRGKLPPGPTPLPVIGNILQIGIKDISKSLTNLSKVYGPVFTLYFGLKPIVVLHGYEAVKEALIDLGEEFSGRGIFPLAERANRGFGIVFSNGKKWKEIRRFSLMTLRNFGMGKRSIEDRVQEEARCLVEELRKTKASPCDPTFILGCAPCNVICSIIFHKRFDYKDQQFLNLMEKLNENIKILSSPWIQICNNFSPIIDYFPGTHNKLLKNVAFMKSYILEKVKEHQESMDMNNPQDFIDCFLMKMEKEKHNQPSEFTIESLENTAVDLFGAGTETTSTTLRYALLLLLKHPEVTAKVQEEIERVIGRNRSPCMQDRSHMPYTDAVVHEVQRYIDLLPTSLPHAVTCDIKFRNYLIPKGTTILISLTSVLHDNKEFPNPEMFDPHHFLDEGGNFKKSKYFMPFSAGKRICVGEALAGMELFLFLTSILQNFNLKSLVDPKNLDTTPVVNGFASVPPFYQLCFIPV
T1 sequence (P10635 whole entry): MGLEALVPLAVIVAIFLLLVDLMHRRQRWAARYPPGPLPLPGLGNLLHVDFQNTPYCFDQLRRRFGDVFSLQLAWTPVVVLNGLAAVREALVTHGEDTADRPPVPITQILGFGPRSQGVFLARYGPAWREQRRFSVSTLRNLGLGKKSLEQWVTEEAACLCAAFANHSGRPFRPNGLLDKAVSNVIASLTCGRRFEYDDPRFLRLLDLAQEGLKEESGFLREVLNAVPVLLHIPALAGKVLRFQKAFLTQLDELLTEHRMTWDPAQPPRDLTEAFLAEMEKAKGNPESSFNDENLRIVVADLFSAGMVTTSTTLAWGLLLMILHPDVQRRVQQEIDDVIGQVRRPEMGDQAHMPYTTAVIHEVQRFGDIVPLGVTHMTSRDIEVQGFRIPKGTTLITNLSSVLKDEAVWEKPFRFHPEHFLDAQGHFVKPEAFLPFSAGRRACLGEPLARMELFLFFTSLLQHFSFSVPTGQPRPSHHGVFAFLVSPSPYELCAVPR

Row | SMILES | inhibition at 10 min, 10 µM (CYP2D6 [1]) | inhibition at 10 min, 10 µM (CYP2C8) | Stability in liver microsomes HLM [2] | Stability in liver microsomes RLM [3] | inhibition at 10 min, 10 µM (CYP2B6) | inhibition at 10 min, 10 µM (CYP3A [4]) | inhibition at 10 min, 10 µM (CYP1A) | Stability in liver microsomes MLM [5] | inhibition at 10 min, 10 µM (CYP3A [6]) | inhibition at 10 min, 10 µM (CYP2C9) | inhibition at 10 min, 10 µM (CYP2C19 [7]) | solubility kinetic at 24 h [8] | also measured
1 | COC(=O)[N-]S(=O)(=O)c1sc(CC(C)C)cc1-c1ccc(Cn2ccnc2C(C)(C)C)cc1.[K+] [Example 12B, Potassium ((3-(4-((2-(tert-butyl)-1H-imidazol-1-yl)methyl)phenyl)-5-isobutylthiophen-2-yl)sulfonyl)(methoxycarbonyl)amide] | 1.6% | 73% | >60 min | >60 min | 25% | 6.8% | 8.3% | 39 min | -11.6% | 29% | 36% | > 200 µM | 
2 | CCCCOC(=O)[N-]S(=O)(=O)c1ccc(CC(C)C)cc1-c1ccc(Cn2ccnc2C(C)(C)O)cc1.[K+] [Example 7B, Potassium (butoxycarbonyl)((4′-((2-(2-hydroxypropan-2-yl)-1H-imidazol-1-yl)methyl)-5-isobutyl-[1,1′-biphenyl]-2-yl)sulfonyl)amide] | 16% | 68% | 28 min | 22 min | 40% | 3.1% | -50% | 20 min | -10.7% | 74% | 52% | > 200 µM | 
3 | CCCCOC(=O)[N-]S(=O)(=O)c1sc(CC(C)C)cc1-c1ccc(Cn2ccnc2)cc1.[Na+] [Example 13, Sodium ((3-(4-((1H-imidazol-1-yl)methyl)phenyl)-5-isobutylthiophen-2-yl)sulfonyl)(butoxycarbonyl)amide, reference compound] |  | 69% | 36 min | 20 min | 53% | 84% | 77% | 39 min |  |  | 93% | 198 µM | CYP 450 Inhibition CYP2D6 (CYP2D6 [1]; at 10 μM): 90%; CYP 450 Inhibition CYP2C8 (CYP2C8; at 10 μM): 82%; CYP 450 Inhibition CYP2B6 (CYP2B6; at 10 μM): 63%; CYP 450 Inhibition CYP3A testosterone (CYP3A [4]): 90%; CYP 450 Inhibition CYP1A (CYP1A; at 10 μM): 89%; CYP 450 Inhibition CYP3A midazolam (CYP3A [6]; at 10 μM, midazolam substrate): 93%
4 | CCCCOC(=O)[N-]S(=O)(=O)c1ccc(CC(C)C)cc1-c1ccc(Cn2ccnc2C(C)(C)C)cc1.[K+] [Example 2B, Potassium ((4′-((2-(tert-butyl)-1H-imidazol-1-yl)methyl)-5-isobutyl-[1,1′-biphenyl]-2-yl)sulfonyl)(butoxycarbonyl)amide] | 15% | 81% | 11 min | 8 min | 57% | 27% | 4.5% | 10 min | 16% | 91% | 71% | 183 µM | 
5 | CCCCOC(=O)NS(=O)(=O)c1sc(CC(C)C)cc1-c1ccc(Cn2ccnc2)cc1 [Example C21, butyl ((3-(4-((1H-imidazol-1-yl)methyl)phenyl)-5-isobutylthiophen-2-yl)sulfonyl)carbamate] |  |  |  |  |  |  |  |  |  |  |  |  | CYP 450 Inhibition CYP2D6 (CYP2D6 [9]): 41%; CYP 450 Inhibition CYP3A midazolam (CYP3A [10]): 82%; CYP 450 Inhibition CYP2C19 (CYP2C19 [11]): 67%
